Data: US7932290B2, “Method for the treatment of metabolic disorders” (Wellstat Biologics Corporation, priority 2003, dated 2011)
Each block holds one molecule with its values, some of them ahead of it.

Tests used:
db/db mice = assay: Antidiabetic effects in db/db mice, Example B (2 weeks daily oral dosing); type: in vivo, mouse; details: for Glucose (% of Control) / Glucose: 2 weeks; for Glucose: nonfasting; for Free Fatty Acids ± SEM / Triglycerides ± SEM: serum, 2 weeks daily oral, dose not given in Table 17 (see Table 16)
Text: db/db mice have a defect in leptin signaling, leading to hyperphagia, obesity and diabetes. Moreover, unlike ob/ob mice on a C57BL/6J background, db/db mice on a C57BL/KS background undergo failure of their insulin-producing pancreatic islet cells, resulting in progression from hyperinsulinemia (associated with peripheral insulin resistance) to hypoinsulinemic diabetes.
Male obese (db/db homozygote) C57BL/Ksola mice approximately 8 weeks of age, were obtained from Jackson Labs (Bar Harbor, Me.) and randomly assigned into groups of 5-7 animals such that the body weights (50-55 g) and serum glucose levels (≧300 mg/dl in fed state) were similar between groups; male lean (db/+heterozygote) mice served as cohort controls. A minimum of 7 days was allowed for adaptation after arrival. All animals were maintained under controlled temperature (23° C.), relative humidity (50±5%) and light (7:00-19:00), and allowed free access to standard chow (Formulab Diet 5008, Quality Lab Products, Elkridge, Md.) and water.
Treatment cohorts were given daily oral doses of Vehicle (1% hydroxypropylmethylcellulose), Compounds BI, CE, BT, BV, […] or Fenofibrate for 2 weeks. At the end of the treatment period 100 μl of venous blood was withdrawn in a heparinized capillary tube from the retro-orbital sinus of db/db mice for serum chemistry analysis.

[1] = test system: male ob/ob mouse model of Type II diabetes; assay: Antidiabetic effects in ob/ob mice (serum chemistry after 2 weeks daily oral dosing); type: in vivo; parameters: key to Glucose ± SEM: serum glucose in mg/dl; Triglycerides ± SEM / Free Fatty Acids ± SEM: unit not given here; details: for Free Fatty Acids ± SEM / Triglycerides ± SEM / Glucose ± SEM: 60 mg/kg; for Glucose / Glucose (% of Control): 60 mg/kg daily oral, 2 weeks; for Glucose ± SEM: Table 15
Experimental: Obese (ob/ob) mice have a defect in the protein leptin, a regulator of appetite and fuel metabolism, leading to hyperphagia, obesity and diabetes.
Male obese (ob/ob homozygote) C57BL/6J mice, approximately 8 weeks of age, were obtained from Jackson Labs (Bar Harbor, Me.) and randomly assigned into groups of 5 animals each such that the body weights (45-50 g) and serum glucose levels (≧300 mg/dl in fed state) were similar between groups. A minimum of 7 days was allowed for adaptation after arrival. All animals were maintained under controlled temperature (23° C.), relative humidity (50±5%) and light (7:00-19:00), and allowed free access to standard chow (Formulab Diet 5020 Quality Lab Products, Elkridge, Md.) and water.
Treatment cohorts were given daily oral doses of vehicle (1% hydroxypropyl-methylcellulose), Compounds BI, CF, CA, CB, CC, or CD for 2 weeks. At the end of the treatment period 100 μl of venous blood was withdrawn in a heparinized capillary tube from the retro-orbital sinus of ob/ob mice for serum chemistry analysis.

[2] = test system: Human PPARγ LBD fusion protein; assay: Transcription activation potential, GAL4 luciferase reporter in C3A cells; type: cell-based
Experimental: Cells were seeded in 24 well plates the day prior to transfection at 5×10^4−2×10^5 cells/well, depending upon cell type. Cells were transfected using Lipofectamine 2000 reagent from Invitrogen. A total of 0.8 μg DNA/well was added to 50 μL of Optimem Reduced Serum media (serum free; Gibco). Lipofectamine 2000 was added (2.5 μL/well) to another tube containing 50 μL of Optimem media. Plasmid DNA was added at a ratio of 4:3 (reporter:activator); where appropriate, salmon sperm DNA was substituted for activator expressing plasmid. […] DNA constructs containing the mouse PPARα or PPARγ LBD fused to the GAL4 DNA binding domain were also used. The two solutions were incubated at room temperature for 5 min, and then combined. The combined solution was incubated at room temperature for approximately 30 min. Cells were washed once with PBS, and 100 μL of transfection mix added to each well. Plates were incubated at 37° C. in a 5% CO2 incubator for 4.5 hr, followed by aspiration of the transfection mix, with plates refed using EMEM complete media (supplemented with 10% FBS, 1× Glutamine). 24 hr post-transfection, plates were treated with the appropriate compounds in EMEM complete media, followed by washing once with PBS and addition of 100 μL 1× reporter lysis buffer/well (Promega) 24 hr after treatment. Plates went through one freeze/thaw cycle prior to analysis. Approximately 10 μL of lysate was added to 100 μL of firefly luciferase substrate, mixed by pipetting, and analyzed on a luminometer for 10 s using the integration function (relative luciferase units/RLU) or on a Microbeta Trilux (luciferase counts per second/LCPS). Each treatment was performed in triplicate, and in multiple, separate experiments.

[3] = molecular target: T1, Human PPARα LBD fusion protein (Homo sapiens, UniProt Q07869); assay: as above; type: cell-based
T1 construct: a.a; 167-468)
T1 sequence (Q07869 167-468): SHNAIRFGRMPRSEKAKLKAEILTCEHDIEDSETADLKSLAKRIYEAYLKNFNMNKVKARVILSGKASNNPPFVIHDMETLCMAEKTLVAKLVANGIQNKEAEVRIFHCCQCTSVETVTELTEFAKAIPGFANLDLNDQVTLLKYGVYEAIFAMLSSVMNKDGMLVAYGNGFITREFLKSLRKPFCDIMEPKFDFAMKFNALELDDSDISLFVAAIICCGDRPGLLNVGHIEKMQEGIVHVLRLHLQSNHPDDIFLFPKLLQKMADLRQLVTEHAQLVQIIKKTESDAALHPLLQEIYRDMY
Experimental: (§1) Cells were seeded in 24 well plates the day prior to transfection at 5×10^4−2×10^5 cells/well, depending upon cell type. Cells were transfected using Lipofectamine 2000 reagent from Invitrogen. A total of 0.8 μg DNA/well was added to 50 μL of Optimem Reduced Serum media (serum free; Gibco). Lipofectamine 2000 was added (2.5 μL/well) to another tube containing 50 μL of Optimem media. Plasmid DNA was added at a ratio of 4:3 (reporter:activator); where appropriate, salmon sperm DNA was substituted for activator expressing plasmid. The reporter plasmid used was pFR-Luc, which has the firefly luciferase gene under the control of a GAL4 UAS ([…]) containing promoter. The activator expressing plasmids contain yeast GAL4 DNA binding domain (dbd) fusion of either human PPARα ligand binding domain (LBD; a.a. 167-468) or human PPARγ LBD (a.a. 176-479). DNA constructs containing the mouse PPARα or PPARγ LBD fused to the GAL4 DNA binding domain were also used. The two solutions were incubated at room temperature for 5 min, and then combined. The combined solution was incubated at room temperature for approximately 30 min. Cells were washed once with PBS, and 100 μL of transfection mix added to each well. Plates were incubated at 37° C. in a 5% CO2 incubator for 4.5 hr, followed by aspiration of the transfection mix, with plates refed using EMEM complete media (supplemented with 10% FBS, 1× Glutamine). 24 hr post-transfection, plates were treated with the appropriate compounds in EMEM complete media, followed by washing once with PBS and addition of 100 μL 1× reporter lysis buffer/well (Promega) 24 hr after treatment. Plates went through one freeze/thaw cycle prior to analysis. Approximately 10 μL of lysate was added to 100 μL of firefly luciferase substrate, mixed by pipetting, and analyzed on a luminometer for 10 s using the integration function (relative luciferase units/RLU) or on a Microbeta Trilux (luciferase counts per second/LCPS). Each treatment was performed in triplicate, and in multiple, separate experiments.

[4] = molecular target: T2, Mouse PPARα LBD fusion protein (Mus musculus, UniProt P23204); assay: as above; type: cell-based
T2 sequence (P23204 239-466): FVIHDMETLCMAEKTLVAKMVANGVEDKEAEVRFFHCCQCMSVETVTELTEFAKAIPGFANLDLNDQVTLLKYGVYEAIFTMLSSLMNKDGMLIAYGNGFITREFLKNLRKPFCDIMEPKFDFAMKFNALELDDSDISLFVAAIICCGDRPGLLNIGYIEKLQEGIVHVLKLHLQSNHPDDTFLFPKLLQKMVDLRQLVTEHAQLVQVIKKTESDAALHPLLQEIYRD
Experimental: as §1

Structure (SMILES): COc1cc(C(=O)CCC(=O)O)ccc1OCc1c(C)cccc1C [BT, 4-[[4-(2,6-Dimethylbenzyloxy)-3-methoxy]phenyl]-4-oxobutyric acid]
- Glucose (% of Control) (db/db mice; 107 mg/kg daily oral): 99 ± 9 % of Control
- Glucose (db/db mice; 107 mg/kg daily oral): 684.3 ± 63.6 mg/dL
- Free Fatty Acids ± SEM (db/db mice): 3897.7 ± 291.3 µM
- Triglycerides ± SEM (db/db mice): 211.5 ± 21.5 mg/dL

Structure (SMILES): Cc1cccc(C)c1COc1ccccc1 [CA, (2,6-Dimethylbenzyloxy)benzene]
- Free Fatty Acids ± SEM [1]: 1572.2 ± 118.0
- Triglycerides ± SEM [1]: 92.6 ± 13.7
- Glucose [1]: 402.6 ± 61.0 mg/dL
- Glucose (% of Control) [1]: 95 ± 14.0 % of Control
- Glucose ± SEM [1]: 402.6 ± 61.0

Structure (SMILES): COC(=O)CC(=O)c1cccc(OCc2c(C)cccc2C)c1 [CB, Methyl 3-(3-(2,6-Dimethylbenzyloxy)phenyl)-3-oxopropionate]
- Free Fatty Acids ± SEM [1]: 2076.2 ± 169.0
- Triglycerides ± SEM [1]: 118.8 ± 18.0
- Glucose [1]: 494.4 ± 72.3 mg/dL
- Glucose (% of Control) [1]: 117.0 ± 17.0 % of Control
- Glucose ± SEM [1]: 494.4 ± 72.3

Structure (SMILES): Cc1cccc(C)c1COc1cccc(C(C=O)CC(N)=O)c1 (stereo not drawn) [CC, 3-(3-(2,6,-Dimethylbenzyloxy)phenyl)-4-oxobutyramide]
- Triglycerides ± SEM [1]: 91.6 ± 13.4
- Glucose [1]: 444.4 ± 89.5 mg/dL
- Glucose (% of Control) [1]: 105.0 ± 21.0 % of Control
- Glucose ± SEM [1]: 444.4 ± 89.5

Structure (SMILES): Cc1cccc(C)c1COc1cccc(C(=O)CCCC(=O)O)c1 [CD, 5-(3-(2,6-Dimethylbenzyloxy)phenyl)-5-oxopentanoic acid]
- Free Fatty Acids ± SEM [1]: 1961.8 ± 194.2
- Triglycerides ± SEM [1]: 119.0 ± 14.2
- Glucose [1]: 505.6 ± 63.5 mg/dL
- Glucose (% of Control) [1]: 119.0 ± 15.0 % of Control
- Glucose ± SEM [1]: 505.6 ± 63.5

Structure (SMILES): CC(C)OC(=O)C(C)(C)Oc1ccc(C(=O)c2ccc(Cl)cc2)cc1 [Fenofibrate, reference compound]
- Glucose (% of Control) (db/db mice; 113 mg/kg daily oral): 81 ± 7 % of Control
- Glucose (db/db mice; 113 mg/kg daily oral): 563.2 ± 49.0 mg/dL
- Free Fatty Acids ± SEM (db/db mice): 3318.5 ± 208.7 µM
- Triglycerides ± SEM (db/db mice): 109.3 ± 9.1 mg/dL

Structure (SMILES): CN(CCOc1ccc(CC2SC(=O)NC2=O)cc1)c1ccccn1 (stereo not drawn) [Rosiglitazone, rosiglitazone, reference compound]
- transcription activation potential (luciferase) ± standard deviation ([2]; Table 22b line 1 μM, rosiglitazone at one-fifth the listed concentration (0.2 μM)): 124 ± 33.8 LCPS
- transcription activation potential (luciferase) ± standard deviation ([2]; Table 22b line 3 μM, rosiglitazone at one-fifth the listed concentration): 134.8 ± 47.8 LCPS
- transcription activation potential (luciferase) ± standard deviation ([2]; Table 22b line 10 μM, rosiglitazone at one-fifth the listed concentration): 626.6 ± 227 LCPS
- transcription activation potential (luciferase) ± standard deviation ([2]; Table 22b line 30 μM, rosiglitazone at one-fifth the listed concentration): 887.2 ± 338.2 LCPS
- transcription activation potential (luciferase) ± standard deviation ([2]; Table 22b line 100 μM, rosiglitazone at one-fifth the listed concentration): 1034.1 ± 400.5 LCPS

- transcription activation potential (luciferase) ± standard deviation ([3]; 1 μM): 181.8 ± 47.6 LCPS
- transcription activation potential (luciferase) ± standard deviation ([3]; 3 μM): 153.1 ± 2.8 LCPS
- transcription activation potential (luciferase) ± standard deviation ([3]; 10 μM): 315.4 ± 36.5 LCPS
- transcription activation potential (luciferase) ± standard deviation ([3]; 30 μM): 648.6 ± 47.5 LCPS
- transcription activation potential (luciferase) ± standard deviation ([3]; 100 μM): 412.23 ± 114 LCPS
- transcription activation potential (luciferase) ± standard deviation ([4]; 1 μM, Table 20a): 406.73 ± 80.11 LCPS
- transcription activation potential (luciferase) ± standard deviation ([4]; 3 μM, Table 20a): 295.8 ± 40.31 LCPS
- transcription activation potential (luciferase) ± standard deviation ([4]; 10 μM, Table 20a): 324.37 ± 11.06 LCPS
- transcription activation potential (luciferase) ± standard deviation ([4]; 30 μM, Table 20a): 414 ± 122.52 LCPS
- transcription activation potential (luciferase) ± standard deviation ([4]; 100 μM, Table 20a): 325.3 ± 91.83 LCPS
- transcription activation potential (luciferase) ± standard deviation ([4]; 100 μM, Table 21a): 55972 ± 5162 RLU
- transcription activation potential (luciferase) ± standard deviation ([4]; 200 μM, Table 20a): 115.2 ± 21.52 LCPS
Structure (SMILES): Cc1cccc(Nc2cc(Cl)nc(SCC(=O)O)n2)c1C [Wy, reference compound]

- transcription activation potential (luciferase) ± standard deviation ([4]; 100 μM, Table 21a): 4440 ± 213 RLU
Structure (SMILES): CC(C(=O)O)c1cccc(Oc2ccccc2)c1 (stereo not drawn) [fenoprofen, reference compound]
